Assay [1] concerns STAT1 S727 phosphorylation. Nature of the assay: Basal STAT1 S727 phosphorylation in rat neurons in culture. The class given is cell-based. The following applies: not shown.
Assay [2] has as its system STAT1 S727 phosphorylation. The experiment in a line: Western blot of STAT1 S727 phosphorylation in NIH 3T3 cells. The format is cell-based, murine. The following applies: 1 μM. As for the experimental part:
(§1) Cells were cultured in 60-mm dishes and treated under different conditions before being lysed in RIPA lysis buffer with protease/phosphatase inhibitor cocktail. The protein concentration of extracts was determined using the DC protein assay (Bio-Rad Laboratories). Protein samples (50 μg) were resolved on 4–12% Express-Plus PAGE gels in Tris-MOPS (SDS) running buffer (GenScript, Piscataway, NJ, USA), transferred to PVDF membranes and incubated at 4 °C overnight with primary antibodies STAT1 (sc-592, Santa Cruz Biotechnology, Dallas, TX, USA) and pSTAT1-Ser727 (#8826, Cell Signaling Technology, Danvers, MA, USA) followed by anti-rabbit (NA934, GE Healthcare, Chicago, IL, USA) secondary antibodies. Bands were visualized with Western Lighting Plus ECL detection reagent (Perkin Elmer, Waltham, MA, USA) using ChemiDoc Touch™ (Bio-Rad). Images were analyzed using ImageLab (Bio-Rad) and ImageJ (version 1.52p) software for protein signal quantification.
On the technique in general: Immunoblotting shows a protein as a band on a membrane.

The next assay has as its target PIKFYVE (Homo sapiens, UniProt Q9Y2I7). Nature of the assay: KdELECT Kd determination, PIKFYVE. On the set-up: purchased DiscoverX. The following applies: 11-point 3-fold serial dilution, duplicate; read-out: Kd for the inhibition of nucleotide binding, PIKFYVE. The protocol:
(§2) The screening platform employs an active site-directed competition binding assay to quantitatively measure interactions between test compounds and targeting kinases. […] To determine dissociation constants (Kds) of compounds on different targets, an 11-point 3-fold serial dilution of each test compound was tested in independent duplicate assays.
(§3) This assay has been previously used with many CDK8/19 inhibitors, including cortistatin A and its equipotent analog dCA [20, 21]; 15w.

The next assay has as its target T1, MAP4K2 (Homo sapiens, UniProt Q12851).
T1 construct: purchased DiscoverX
T1 sequence (Q12851 1-820): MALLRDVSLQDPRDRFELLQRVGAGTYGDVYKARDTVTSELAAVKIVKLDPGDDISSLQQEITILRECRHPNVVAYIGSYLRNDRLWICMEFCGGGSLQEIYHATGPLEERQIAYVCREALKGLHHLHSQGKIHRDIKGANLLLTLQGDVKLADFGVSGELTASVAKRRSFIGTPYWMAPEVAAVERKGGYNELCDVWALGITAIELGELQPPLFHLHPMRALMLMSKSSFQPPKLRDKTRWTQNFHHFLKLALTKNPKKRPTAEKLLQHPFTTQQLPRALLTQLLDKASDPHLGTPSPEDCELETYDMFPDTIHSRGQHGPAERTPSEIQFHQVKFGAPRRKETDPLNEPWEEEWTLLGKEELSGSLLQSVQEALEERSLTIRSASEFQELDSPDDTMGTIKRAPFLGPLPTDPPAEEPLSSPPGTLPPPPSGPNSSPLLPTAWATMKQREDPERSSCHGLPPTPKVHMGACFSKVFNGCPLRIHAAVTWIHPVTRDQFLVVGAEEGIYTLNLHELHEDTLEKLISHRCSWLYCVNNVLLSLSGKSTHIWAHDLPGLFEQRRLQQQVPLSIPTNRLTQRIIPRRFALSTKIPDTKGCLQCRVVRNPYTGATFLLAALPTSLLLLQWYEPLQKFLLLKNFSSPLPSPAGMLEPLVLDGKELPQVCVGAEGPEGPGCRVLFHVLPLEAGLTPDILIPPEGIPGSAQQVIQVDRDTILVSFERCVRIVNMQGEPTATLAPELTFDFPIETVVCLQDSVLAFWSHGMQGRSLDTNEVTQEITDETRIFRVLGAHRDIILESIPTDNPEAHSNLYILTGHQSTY
Nature of the assay: KdELECT Kd determination, MAP4K2. The following applies: 11-point 3-fold serial dilution, duplicate; read-out: Kd for the inhibition of nucleotide binding, MAP4K2. As for the experimental part: as §2, §3

Assay [3] concerns the target T2, CDK8 (Homo sapiens, UniProt P49336). The experiment in a line: Cell-based QPCR assay of CDK8/19-dependent gene expression, HEK293 CDK19 single-knockout (19KO) cells. On the set-up: CDK19 single-knockout (19KO); endogenous in cells; host or cells: HEK293 CDK19 knockout (19KO). The following applies: HEK293 19KO, 1 h pre-treatment, then 10 ng/mL TNFα 2 h.
Target sequence in this assay (P49336 whole entry): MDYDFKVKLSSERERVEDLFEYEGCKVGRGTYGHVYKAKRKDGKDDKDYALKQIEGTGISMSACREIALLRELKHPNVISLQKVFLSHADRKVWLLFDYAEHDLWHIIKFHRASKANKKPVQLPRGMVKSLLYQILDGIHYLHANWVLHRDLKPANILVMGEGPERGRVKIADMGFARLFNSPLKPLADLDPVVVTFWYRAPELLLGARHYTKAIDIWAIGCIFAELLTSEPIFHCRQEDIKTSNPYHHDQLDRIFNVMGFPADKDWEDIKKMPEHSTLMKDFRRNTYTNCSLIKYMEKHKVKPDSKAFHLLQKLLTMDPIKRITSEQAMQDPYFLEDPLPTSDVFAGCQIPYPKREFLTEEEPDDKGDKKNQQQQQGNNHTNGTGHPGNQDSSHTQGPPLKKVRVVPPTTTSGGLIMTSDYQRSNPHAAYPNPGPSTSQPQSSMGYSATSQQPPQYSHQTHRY
Target sequence in this assay (P24863 whole entry partner): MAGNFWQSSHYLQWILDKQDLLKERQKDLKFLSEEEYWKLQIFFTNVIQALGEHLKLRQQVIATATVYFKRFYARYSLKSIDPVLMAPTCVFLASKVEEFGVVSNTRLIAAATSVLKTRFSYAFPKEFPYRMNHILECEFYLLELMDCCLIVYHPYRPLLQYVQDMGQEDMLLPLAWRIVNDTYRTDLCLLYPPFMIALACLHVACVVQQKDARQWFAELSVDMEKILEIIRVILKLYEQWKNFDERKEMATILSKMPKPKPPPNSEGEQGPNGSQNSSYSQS
Experimental: CDK8/CDK19 single knockout and double knockout derivatives of human embryonic kidney (HEK) 293 cells (ATCC CRL-1573) were generated as previously described [18]. All cells were cultured in DMEM (high-glucose) media supplemented with 10% fetal bovine serum (FBS) and Penicillin-Streptomycin-Glutamine (1×) at 37 °C with 5% CO2 and routinely confirmed to be free of mycoplasma.
Total RNA was extracted using RNAeasy Mini Kit (Qiagen, Germantown, MD, USA) and 1 µg of total RNA was used to generate cDNA using iScript cDNA synthesis kit (Bio-Rad Laboratories, Hercules, CA, USA). Gene expression was quantified using iTaq Universal SYBR green super mix using CFX384 Real-Time System (Bio-Rad).
The IC50 values for different inhibitors in inhibiting CDK8/19-dependent gene expression were calculated using a three-parameter least square (ordinary) fitting method with GraphPad Prism 7.0 (GraphPad Software, San Diego, CA, USA). The Kruskal–Wallis non-parametric ANOVA was used to compare gene expression levels under no-inhibitor conditions between wild-type cells and knockout derivatives (8KO, 19KO and dKO) with GraphPad Prism 7.0.
Cells were pre-treated with different concentrations of CDK8/19 inhibitors for 1 h and then 10 ng/mL TNFα, an inducer of transcription factor NFκB, which is potentiated by CDK8/19 [5], was added for 2 h before RNA extraction. QPCR was carried out to quantify CDK8/19-regulated expression of NFκB-inducible genes CXCL1 and CXCL8 and the basal expression of MYC.
For a further assay, the target named is T3, JNK1 (MAPK8) (Homo sapiens, UniProt P45983).
T3 construct: purchased DiscoverX
T3 sequence (P45983 whole entry): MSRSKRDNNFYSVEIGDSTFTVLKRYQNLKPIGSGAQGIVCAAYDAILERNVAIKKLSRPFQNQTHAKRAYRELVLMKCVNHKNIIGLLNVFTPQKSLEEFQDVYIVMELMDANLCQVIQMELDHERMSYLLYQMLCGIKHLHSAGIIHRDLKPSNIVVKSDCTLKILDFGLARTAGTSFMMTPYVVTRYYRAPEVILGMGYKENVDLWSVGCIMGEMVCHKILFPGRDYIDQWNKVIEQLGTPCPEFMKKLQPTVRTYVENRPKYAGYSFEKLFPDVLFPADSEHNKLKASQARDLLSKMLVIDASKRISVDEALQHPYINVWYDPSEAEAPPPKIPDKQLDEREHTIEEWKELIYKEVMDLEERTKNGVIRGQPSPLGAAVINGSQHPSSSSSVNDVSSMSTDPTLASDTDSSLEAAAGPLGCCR
Nature of the assay: KdELECT Kd determination, JNK1. The following applies: 11-point 3-fold serial dilution, duplicate; read-out: Kd for the inhibition of nucleotide binding, JNK1 (MAPK8). The protocol: as §2, §3

A further assay relates to CDK8/19. The experiment in a line: Cell-based QPCR assay of CDK8/19-dependent gene expression, HEK293 parental (WT) cells. On the set-up: species or system human. The following applies: for IC50: HEK293 WT, 1 h pre-treatment, then 10 ng/mL TNFα 2 h, QPCR.
Assay [4] has as its system STAT1 S727 phosphorylation. Details: method as in patent application US 2017/0115308A1. The following applies: ref patent application US 2017/0115308A1; cited from earlier work.
Assay [5] concerns the target T2, CDK8. Nature of the assay: KdELECT Kd determination, CDK8. Details: purchased DiscoverX. The following applies: 11-point 3-fold serial dilution, duplicate; read-out: Kd for the inhibition of nucleotide binding, CDK8. The class given is binding. As for the experimental part:
To determine dissociation constants (Kds) of compounds on different targets, an 11-point 3-fold serial dilution of each test compound was tested in independent duplicate assays.
Target sequence in this assay (P49336 whole entry): as the sequence (P49336 whole entry) above

Assay [6] has as its system STAT1 S727 phosphorylation. Nature of the assay: Western blot of STAT1 S727 phosphorylation in 293-WT cells. The format is cell-based, human. The following applies: 1 μM. As for the experimental part: as §1
Another assay has as its target T4, STK16 (Homo sapiens, UniProt O75716).
T4 construct: purchased DiscoverX
Nature of the assay: KdELECT Kd determination, STK16. The following applies: 11-point 3-fold serial dilution, duplicate; read-out: Kd for the inhibition of nucleotide binding, STK16. The protocol: as §2, §3

For the next assay, the target named is T5, GSK3A (Homo sapiens, UniProt P49840).
T5 construct: purchased DiscoverX
T5 sequence (P49840 whole entry): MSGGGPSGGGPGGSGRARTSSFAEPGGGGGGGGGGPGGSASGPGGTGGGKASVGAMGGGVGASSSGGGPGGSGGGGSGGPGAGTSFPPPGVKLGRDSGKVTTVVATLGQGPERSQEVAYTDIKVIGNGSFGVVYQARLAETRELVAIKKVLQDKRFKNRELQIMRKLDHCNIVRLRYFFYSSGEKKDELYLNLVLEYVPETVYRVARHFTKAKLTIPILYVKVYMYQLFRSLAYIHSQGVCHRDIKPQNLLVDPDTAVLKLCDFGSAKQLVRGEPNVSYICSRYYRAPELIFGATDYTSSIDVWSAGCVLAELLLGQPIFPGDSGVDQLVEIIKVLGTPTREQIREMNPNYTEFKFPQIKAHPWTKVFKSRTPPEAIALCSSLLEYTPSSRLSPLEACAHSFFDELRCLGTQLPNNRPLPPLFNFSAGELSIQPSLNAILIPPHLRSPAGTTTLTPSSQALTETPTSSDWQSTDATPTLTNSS
The experiment in a line: KdELECT Kd determination, GSK3A. The following applies: 11-point 3-fold serial dilution, duplicate; read-out: Kd for the inhibition of nucleotide binding, GSK3A. The protocol:
as §2, §3

Molecules are shown by their SMILES. Like-named read-outs stand apart in the source and are kept apart here.

T4 sequence (O75716 whole entry): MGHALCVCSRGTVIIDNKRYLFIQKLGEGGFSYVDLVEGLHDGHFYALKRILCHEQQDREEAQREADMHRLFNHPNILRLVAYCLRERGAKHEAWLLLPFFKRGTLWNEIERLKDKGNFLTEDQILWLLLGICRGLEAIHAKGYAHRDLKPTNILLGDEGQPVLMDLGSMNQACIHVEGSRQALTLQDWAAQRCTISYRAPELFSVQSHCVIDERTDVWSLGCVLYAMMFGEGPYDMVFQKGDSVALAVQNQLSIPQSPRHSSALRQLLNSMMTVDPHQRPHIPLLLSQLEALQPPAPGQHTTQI
Sequence of PIKFYVE (Q9Y2I7 whole entry): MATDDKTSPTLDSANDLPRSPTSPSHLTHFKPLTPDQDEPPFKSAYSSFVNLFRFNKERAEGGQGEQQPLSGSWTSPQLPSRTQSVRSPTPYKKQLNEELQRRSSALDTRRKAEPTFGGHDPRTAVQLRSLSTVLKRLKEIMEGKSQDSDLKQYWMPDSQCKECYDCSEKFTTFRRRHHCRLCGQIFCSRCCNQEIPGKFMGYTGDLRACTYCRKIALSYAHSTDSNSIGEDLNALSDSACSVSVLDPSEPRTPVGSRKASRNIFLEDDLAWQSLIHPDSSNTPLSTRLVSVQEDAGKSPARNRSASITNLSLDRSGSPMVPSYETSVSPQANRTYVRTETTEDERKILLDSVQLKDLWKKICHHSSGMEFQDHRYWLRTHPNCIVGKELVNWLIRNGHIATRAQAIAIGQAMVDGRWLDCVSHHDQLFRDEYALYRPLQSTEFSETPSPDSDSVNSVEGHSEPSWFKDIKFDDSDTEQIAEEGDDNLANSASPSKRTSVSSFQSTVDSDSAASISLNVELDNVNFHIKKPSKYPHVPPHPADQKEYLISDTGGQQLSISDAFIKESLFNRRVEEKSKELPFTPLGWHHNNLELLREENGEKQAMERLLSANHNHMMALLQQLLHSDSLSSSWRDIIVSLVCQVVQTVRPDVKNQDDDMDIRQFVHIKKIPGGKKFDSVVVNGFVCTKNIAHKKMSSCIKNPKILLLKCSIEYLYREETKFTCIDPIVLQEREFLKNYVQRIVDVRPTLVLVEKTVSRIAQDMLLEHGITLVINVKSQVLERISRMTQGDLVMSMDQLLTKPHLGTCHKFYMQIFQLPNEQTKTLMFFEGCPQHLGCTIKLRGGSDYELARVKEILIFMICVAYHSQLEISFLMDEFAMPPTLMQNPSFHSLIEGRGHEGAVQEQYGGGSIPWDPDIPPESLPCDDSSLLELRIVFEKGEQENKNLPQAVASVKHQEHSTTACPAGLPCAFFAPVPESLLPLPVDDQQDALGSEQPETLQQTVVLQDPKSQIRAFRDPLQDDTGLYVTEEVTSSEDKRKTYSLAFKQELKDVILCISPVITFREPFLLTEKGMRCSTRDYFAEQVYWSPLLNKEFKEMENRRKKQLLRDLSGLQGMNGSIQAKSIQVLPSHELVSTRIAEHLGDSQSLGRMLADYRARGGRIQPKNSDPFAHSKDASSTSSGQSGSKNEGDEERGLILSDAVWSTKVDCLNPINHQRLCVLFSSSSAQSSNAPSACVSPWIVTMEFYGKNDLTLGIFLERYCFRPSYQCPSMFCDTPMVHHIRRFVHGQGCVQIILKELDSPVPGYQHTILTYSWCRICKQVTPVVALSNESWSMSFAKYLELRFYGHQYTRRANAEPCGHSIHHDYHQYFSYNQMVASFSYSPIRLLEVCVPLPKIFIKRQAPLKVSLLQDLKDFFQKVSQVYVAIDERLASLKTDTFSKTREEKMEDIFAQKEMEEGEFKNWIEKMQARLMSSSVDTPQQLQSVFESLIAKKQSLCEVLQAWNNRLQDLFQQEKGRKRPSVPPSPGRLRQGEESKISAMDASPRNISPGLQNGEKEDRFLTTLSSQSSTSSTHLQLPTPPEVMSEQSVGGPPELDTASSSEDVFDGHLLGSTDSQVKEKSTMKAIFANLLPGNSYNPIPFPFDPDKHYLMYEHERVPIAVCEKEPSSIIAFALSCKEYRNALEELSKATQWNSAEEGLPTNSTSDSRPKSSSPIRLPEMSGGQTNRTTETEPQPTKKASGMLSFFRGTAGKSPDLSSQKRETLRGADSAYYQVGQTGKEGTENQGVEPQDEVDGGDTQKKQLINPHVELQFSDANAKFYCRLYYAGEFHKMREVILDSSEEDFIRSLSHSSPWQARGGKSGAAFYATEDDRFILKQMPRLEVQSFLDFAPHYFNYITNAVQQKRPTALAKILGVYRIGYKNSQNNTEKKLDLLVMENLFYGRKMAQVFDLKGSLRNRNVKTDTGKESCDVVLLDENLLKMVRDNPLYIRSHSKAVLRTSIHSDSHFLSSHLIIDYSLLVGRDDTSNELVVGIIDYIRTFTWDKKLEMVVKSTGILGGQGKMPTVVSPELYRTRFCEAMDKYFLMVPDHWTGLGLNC

In general, Kd refers to the constant that tells how readily two partners part at equilibrium. Broadly, the IC50 is the point on the concentration scale where inhibition reaches its midpoint. `CN1CCN(C(=O)c2ccc3cc(CCNc4ncnc5ccc(C#N)cc45)ccc3c2)CC1` [Senexin B]: the “Effect on basal STAT1 S727 phosphorylation in rat neurons in culture” value in [1] is recorded as “did not detect any effect”. Moreover, the “Effect on STAT1 S727 phosphorylation, serum-starved NIH 3T3 cells” value in assay [2] (serum starvation 24 h) is “inhibits STAT1 S727 phosphorylation”. The “Effect on STAT1 S727 phosphorylation, NIH 3T3 cells after addition of serum” value in assay [2] (serum stimulation 1 h) is “only a minor effect”. Also, the Kd on PIKFYVE was 14000 nM; on MAP4K2 it was 570 nM; on JNK1 (MAPK8), 7200 nM; at CDK8 [5] it was 59 nM; at STK16 it was 2200 nM; at GSK3A it was more than 30000 nM. Besides, the IC50 at CDK8 [3] (read-out: IC50, CXCL1 mRNA expression, 19KO) worked out at 70 nM; at CDK8 [3] (read-out: IC50, CXCL8 mRNA expression, 19KO), 71 nM; at CDK8 [3] (read-out: IC50, MYC mRNA expression, 19KO) it was 51 nM; in the assay with CDK8/19 (read-out: IC50, CXCL1 mRNA expression, WT), 68 nM; in the assay with CDK8/19 (read-out: IC50, CXCL8 mRNA expression, WT), 81 nM; in the assay with CDK8/19 (read-out: IC50, MYC mRNA expression, WT), 45 nM. In addition, in the assay with CDK8/19, the “Activity in the cell-based assay (WT, 8KO and 19KO cells)” value was “an order of magnitude less active”. In assay [4], the “Effect on basal STAT1 S727 phosphorylation in all the tested tumor cell lines” value is recorded as “inhibited”. In addition, in [6], the “Effect on STAT1 S727 phosphorylation, WT 293 cells under standard conditions and serum-starved” value is reported as “inhibits STAT1 S727 phosphorylation”. Besides, in [6] (serum stimulation 1 h), the “Effect on serum-stimulated increase of STAT1 S727 phosphorylation, WT 293 cells” value is reported as “only weakly affected”.
